Target: T1, human glucocorticoid receptor (GR) complex (Homo sapiens, UniProt P04150)
T1 construct: made in house; host or cells: insect expression system (baculovirus lysate)
T1 sequence (P04150 1-777): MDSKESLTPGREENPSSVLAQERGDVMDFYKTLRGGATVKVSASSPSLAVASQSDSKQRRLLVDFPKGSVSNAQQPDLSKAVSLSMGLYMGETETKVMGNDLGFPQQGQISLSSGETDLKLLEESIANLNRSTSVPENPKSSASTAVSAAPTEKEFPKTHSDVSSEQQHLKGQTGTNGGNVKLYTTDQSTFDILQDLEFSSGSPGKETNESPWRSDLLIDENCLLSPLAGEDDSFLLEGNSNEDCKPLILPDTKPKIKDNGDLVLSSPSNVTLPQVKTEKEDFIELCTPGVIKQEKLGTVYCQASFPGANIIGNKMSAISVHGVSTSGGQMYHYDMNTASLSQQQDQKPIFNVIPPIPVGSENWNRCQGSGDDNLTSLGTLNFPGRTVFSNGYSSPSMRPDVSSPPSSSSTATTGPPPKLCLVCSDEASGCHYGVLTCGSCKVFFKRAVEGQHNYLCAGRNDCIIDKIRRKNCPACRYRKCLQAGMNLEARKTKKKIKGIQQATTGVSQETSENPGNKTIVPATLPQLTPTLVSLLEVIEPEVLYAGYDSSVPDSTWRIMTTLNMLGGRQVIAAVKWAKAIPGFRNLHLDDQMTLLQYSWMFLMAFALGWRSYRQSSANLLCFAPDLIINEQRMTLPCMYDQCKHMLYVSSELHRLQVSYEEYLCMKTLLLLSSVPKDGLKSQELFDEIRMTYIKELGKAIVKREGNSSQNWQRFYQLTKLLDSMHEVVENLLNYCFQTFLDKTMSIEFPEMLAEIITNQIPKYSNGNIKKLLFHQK
Assay: Glucocorticoid receptor competitive binding assay (fluorescence polarization, TAMRA-labeled dexamethasone probe)
Settings: qualitative statement, values not given
Description: Compounds of the invention were evaluated for binding to the steroid receptor by a fluorescence polarization competitive binding assay. Detailed descriptions for preparation of recombinant glucocorticoid receptor (GR) complex used in the assay is described in Goldrick et al., U.S. provisional application No. 60/291,877, filed May 18, 2001 (corresponding to Goldrick et al., U.S. nonprovisional application No. 10/151,133, filed May 20, 2002) both incorporated herein by reference in their entirety. Preparation of the tetramethyl rhodamine (TAMRA)-labeled dexamethasone probe was accomplished using a standard literature procedure (M. Pons et al., J. Steroid Biochem., 1985, 22, pp. 267–273).
A. Glucocorticoid Receptor Competitive Binding Assay
Step 1. Characterization of the Fluorescent Probe
The wavelengths for maximum excitation and emission of the fluorescent probe should first be measured. An example of such a probe is rhodamine (TAMRA)-labeled dexamethasone.
The affinity of the probe for the steroid receptor was then determined in a titration experiment. The fluorescence polarization value of the probe in assay buffer was measured on an SLM-8100 fluorometer using the excitation and emission maximum values described above. Aliquots of expression vector lysate were added and fluorescence polarization was measured after each addition until no further change in polarization value was observed. Non-linear least squares regression analysis was used to calculate the dissociation constant of the probe from the polarization values obtained for lysate binding to the probe.
Step 2. Screening for Inhibitors of Probe Binding
This assay uses fluorescence polarization (FP) to quantitate the ability of test compounds to compete with tetramethyl rhodamine (TAMRA)-labeled dexamethasone for binding to a human glucocorticoid receptor (GR) complex prepared from an insect expression system. The assay buffer was: 10 mM TES, 50 mM KCl, 20 mM Na2MoO4.2H2O, 1.5 mM EDTA, 0.04% w/v CHAPS, 10% v/v glycerol, 1 mM dithiothreitol, pH 7.4. Test compounds were dissolved to 1 mM in neat DMSO and then further diluted to 10× assay concentration in assay buffer supplemented with 10% v/v DMSO. Test compounds were serially diluted at 10× assay concentrations in 10% DMSO-containing buffer in 96-well polypropylene plates. Binding reaction mixtures were prepared in 96-well black Dynex microtiter plates by sequential addition of the following assay components to each well: 15 μL of 10× test compound solution, 85 μL of GR-containing baculovirus lysate diluted 1:170 in assay buffer, and 50 μL of 15 nM TAMRA-labeled dexamethasone. Positive controls were reaction mixtures containing no test compound; negative controls (blanks) were reaction mixtures containing 0.7 μM to 2 μM dexamethasone. The binding reactions were incubated for 1 hour at room temperature and then read for fluorescence polarization in the LJL Analyst set to 550 nm excitation and 580 nm emission, with the Rhodamine 561 dichroic mirror installed. IC50 values were determined by iterative non-linear curve fitting of the FP signal data to a 4-parameter logistic equation.

Row | SMILES | activity in the GR binding assay
1 | COc1ccc(F)cc1C(C)(C)CC(N)(Cc1cc(C(F)(F)F)cc(Cl)c1F)C(F)(F)F (stereo not shown) [Compound 4, 1-(3-Chloro-2-fluoro-5-trifluoromethyl-benzyl)-3-(5-fluoro-2-methoxy-phenyl)-3-methyl-1-trifluoromethyl-butylamine] | demonstrated activity
2 | COc1ccc(F)cc1C(C)(C)CC(N)(Cc1cc(Cl)cc(Cl)c1)C(F)(F)F (stereo not shown) [Compound 2, 1-(3,5-Dichloro-benzyl)-3-(5-fluoro-2-methoxy-phenyl)-3-methyl-1-trifluoromethyl-butylamine] | demonstrated activity
3 | COc1ccc(F)cc1C(C)(C)CC(N)(Cc1ccc(Cl)c(Cl)c1)C(F)(F)F (stereo not shown) [Compound 3, 1-(3,4-Dichloro-benzyl)-3-(5-fluoro-2-methoxy-phenyl)-3-methyl-1-trifluoromethyl-butylamine] | demonstrated activity
4 | COc1ccc(F)cc1C(C)(C)CC(N)(Cc1cc(C)cc(C)c1)C(F)(F)F (stereo not shown) [Compound 1, 1-(3,5-Dimethyl-benzyl)-3-(5-fluoro-2-methoxy-phenyl)-3-methyl-1-trifluoromethyl-butylamine] | demonstrated activity
5 | COc1ccc(F)cc1C(C)(C)CC(N)(Cc1ccc(C#N)cc1Cl)C(F)(F)F (stereo not shown) [Compound 5, 4-[2-Amino-4-(5-fluoro-2-methoxy-phenyl)-4-methyl-2-trifluoromethyl-pentyl]-3-chloro-benzonitrile] | demonstrated activity

The next lines start with the values.

Row | activity in the GR binding assay | SMILES
6 | demonstrated activity | Cc1cc(C)cc(CC(N)(CC(C)(C)c2cc(F)ccc2O)C(F)(F)F)c1 (stereo not shown) [Compound 6, 2-[3-Amino-3-(3,5-dimethyl-benzyl)-4,4,4-trifluoro-1,1-dimethyl-butyl]-4-fluoro-phenol]
7 | demonstrated activity | CC(C)(CC(N)(Cc1cc(Cl)cc(Cl)c1)C(F)(F)F)c1cc(F)ccc1O (stereo not shown) [Compound 7, 2-[3-Amino-3-(3,5-dichloro-benzyl)-4,4,4-trifluoro-1,1-dimethyl-butyl]-4-fluoro-phenol]

Source: patent US7186864B2, “Glucocorticoid mimetics, methods of making them, pharmaceutical compositions, and uses thereof” (Boehringer Ingelheim Pharmaceuticals, Inc., priority 2002, dated 2007)
